In patent publication EP3875080B1, “DOSAGE FORM PROVIDING PROLONGED RELEASE OF […] SALT” (priority 2020, dated 2021):
Structures can show the parent of a compound that is named as a salt. Where two headings read alike, the source gives them in different places.

Experiments:
[1] = in vivo, cited from earlier work
[2] = intrinsic dissolution (dissolution rate), Wood's apparatus; format: physicochemical
Procedure: 100 mg of Tapentadol, either in form of the hydrochloride salt or the dihydrogenphosphate salt (mixed form [batch with fine particles], pure hemihydrate or pure anhydrate) were compressed at a compressing force of 200 kg (gravitational) for 1 minute at a surface of 0.5 cm^2. The thus obtained compressed samples were investigated for their dissolution rate in a Wood's apparatus at 37 °C in 900 mL of dissolution medium at different pH values and a rotational speed of the paddle of 50 rpm.

[3] = in vitro dissolution of Tapentadol from tablets, paddle apparatus Ph. Eur.; format: physicochemical; settings: for ethanol induced dose dumping: 0.1 N HCl (pH 1.0) containing 40 vol.-% ethanol compared to pH 1.0
Procedure: The in vitro dissolution of Tapentadol from the tablets (drug load 250 mg, C-1, I-1 and I-3) was measured in a paddle apparatus in accordance with Ph. Eur., equipped with sinker, at a rotational speed of 50 rpm at 37 °C in 900 ml of different dissolution media having different pH values. The experimental results are compiled in the table here below:
The in vitro dissolution of Tapentadol from the tablets (drug load 250 mg, I-4) was measured in a paddle apparatus in accordance with Ph. Eur., equipped with sinker, at a rotational speed of 50 rpm at 37 °C in 900 ml of 0.1 N HCl without ethanol (pH 1.0) and in 0.1 N HCl with 40 vol.-% ethanol (pH 1.0).

[4] = thermodynamic solubility (saturation solubility); format: physicochemical; settings: for solubility thermodynamic at 24 h: thermodynamic from solid, read-out: thermodynamic solubility, assay expressed as base
Procedure: The thermodynamic solubility of Tapentadol hydrochloride and of Tapentadol dihydrogen-phosphate (mixed form, batch with fine particles) was determined as saturation solubility in various media at various pH values. The solutions were stirred for 24 hours at 25 °C and the pH values of the solutions at the start and at the end of the experiments were measured. The dissolved amount of Tapentadol was quantified by HPLC (free base of Tapentadol).

COc1ccc2c3c1O[C@H]1C(=O)CC[C@H]4[C@@H](C2)N(C)CC[C@]314 [Hydrocodone]
Maximum individual Cmax ratio with 40% alcohol [1]: 3.9
mean increase in Cmax ratio relative to drug co-ingested with 0% alcohol [1]: 2.3

CN1CC[C@]23c4c5ccc(O)c4O[C@H]2C(=O)CC[C@@]3(O)[C@H]1C5 [Oxymorphone]
Maximum individual Cmax ratio with 40% alcohol [1]: 2.70
mean increase in Cmax ratio relative to drug co-ingested with 0% alcohol [1]: 1.70

CC[C@@H](c1cccc(O)c1)[C@@H](C)CN(C)C.O=P(O)(O)O [Tapentadol dihydrogenphosphate anhydrate]
intrinsic dissolution (dissolution rate) ([2]; pH 1.2, 0 min): 0%
intrinsic dissolution (dissolution rate) ([2]; pH 1.2, 1 min): 15%
intrinsic dissolution (dissolution rate) ([2]; pH 1.2, 3 min): 37%
intrinsic dissolution (dissolution rate) ([2]; pH 1.2, 5 min): 57%
intrinsic dissolution (dissolution rate) ([2]; pH 1.2, 7 min): 75%
intrinsic dissolution (dissolution rate) ([2]; pH 1.2, 9 min): 85%
intrinsic dissolution (dissolution rate) ([2]; pH 6.8, 0 min): 0%
intrinsic dissolution (dissolution rate) ([2]; pH 6.8, 1 min): 13%
intrinsic dissolution (dissolution rate) ([2]; pH 6.8, 3 min): 36%
intrinsic dissolution (dissolution rate) ([2]; pH 6.8, 5 min): 66%
intrinsic dissolution (dissolution rate) ([2]; pH 6.8, 7 min): 90%
intrinsic dissolution (dissolution rate) ([2]; pH 6.8, 9 min): 96%

CC[C@@H](c1cccc(O)c1)[C@@H](C)CN(C)C.CC[C@@H](c1cccc(O)c1)[C@@H](C)CN(C)C.O.O=P(O)(O)O.O=P(O)(O)O [Tapentadol dihydrogenphosphate hemihydrate]
intrinsic dissolution (dissolution rate) ([2]; pH 1.2, 0 min): 0%
intrinsic dissolution (dissolution rate) ([2]; pH 1.2, 1 min): 14%
intrinsic dissolution (dissolution rate) ([2]; pH 1.2, 3 min): 37%
intrinsic dissolution (dissolution rate) ([2]; pH 1.2, 5 min): 54%
intrinsic dissolution (dissolution rate) ([2]; pH 1.2, 7 min): 72%
intrinsic dissolution (dissolution rate) ([2]; pH 1.2, 9 min): 84%
intrinsic dissolution (dissolution rate) ([2]; pH 6.8, 0 min): 0%
intrinsic dissolution (dissolution rate) ([2]; pH 6.8, 1 min): 12%
intrinsic dissolution (dissolution rate) ([2]; pH 6.8, 3 min): 36%
intrinsic dissolution (dissolution rate) ([2]; pH 6.8, 5 min): 66%
intrinsic dissolution (dissolution rate) ([2]; pH 6.8, 7 min): 80%
intrinsic dissolution (dissolution rate) ([2]; pH 6.8, 9 min): 83%

CC[C@@H](c1cccc(O)c1)[C@@H](C)CN(C)C [Tapentadol hydrochloride, reference compound]
intrinsic dissolution (dissolution rate) ([2]; pH 1.0, 0 min): 0%
intrinsic dissolution (dissolution rate) ([2]; pH 1.0, 1 min): 52%
intrinsic dissolution (dissolution rate) ([2]; pH 1.0, 3 min): 95%
intrinsic dissolution (dissolution rate) ([2]; pH 1.0, 5 min): 99%
intrinsic dissolution (dissolution rate) ([2]; pH 1.0, 7 min): 99%
intrinsic dissolution (dissolution rate) ([2]; pH 1.0, 9 min): 99%
intrinsic dissolution (dissolution rate) ([2]; pH 4.5, 0 min): 0%
intrinsic dissolution (dissolution rate) ([2]; pH 4.5, 1 min): 60%
intrinsic dissolution (dissolution rate) ([2]; pH 4.5, 3 min): 91%
intrinsic dissolution (dissolution rate) ([2]; pH 4.5, 5 min): 95%
intrinsic dissolution (dissolution rate) ([2]; pH 4.5, 7 min): 95%
intrinsic dissolution (dissolution rate) ([2]; pH 4.5, 9 min): 96%
intrinsic dissolution (dissolution rate) ([2]; pH 6.8, 0 min): 0%
intrinsic dissolution (dissolution rate) ([2]; pH 6.8, 1 min): 38%
intrinsic dissolution (dissolution rate) ([2]; pH 6.8, 3 min): 79%
intrinsic dissolution (dissolution rate) ([2]; pH 6.8, 5 min): 92%
intrinsic dissolution (dissolution rate) ([2]; pH 6.8, 7 min): 94%
intrinsic dissolution (dissolution rate) ([2]; pH 6.8, 9 min): 94%
intrinsic dissolution (dissolution rate) ([2]; pH 7.4, 0 min): 0%
intrinsic dissolution (dissolution rate) ([2]; pH 7.4, 1 min): 27%
intrinsic dissolution (dissolution rate) ([2]; pH 7.4, 3 min): 65%
intrinsic dissolution (dissolution rate) ([2]; pH 7.4, 5 min): 80%
intrinsic dissolution (dissolution rate) ([2]; pH 7.4, 7 min): 89%
intrinsic dissolution (dissolution rate) ([2]; pH 7.4, 9 min): 92%
ethanol induced dose dumping [3]: no ethanol induced dose dumping
pH end ([4]; 0.1 M HCl, pH start 1.11): 0.83
pH end ([4]; 0.15N NaOH, pH start 13.08): 8.21
pH end ([4]; SIF sp pH 6.8, pH start 6.82): 6.23
pH end ([4]; acetate pH 4.5, pH start 4.54): 4.29
pH end ([4]; citrate pH 6.8, pH start 6.83): 6.17
pH end ([4]; citrate pH 7.4, pH start 7.39): 6.33
solubility thermodynamic at 24 h ([4]; pH 1.11, aqueous buffer, 0.1 M HCl, pH start 1.11, 24 hours at 25 °C): 312 mg/mL
solubility thermodynamic at 24 h ([4]; pH 13.08, aqueous buffer, 0.15N NaOH, pH start 13.08, 24 hours at 25 °C): 66 mg/mL
pH end ([4]; water): 4.63

CC[C@@H](c1cccc(O)c1)[C@@H](C)CN(C)C [Tapentadol, (-)-(1R,2R)-3-(3-dimethylamino-1-ethyl-2-methyl-propyl)-phenol]
Maximum individual Cmax ratio with 40% alcohol ([1]; 100 mg): 4.38
mean increase in Cmax ratio relative to drug co-ingested with 0% alcohol ([1]; 100 mg): 1.48
Maximum individual Cmax ratio with 40% alcohol ([1]; 250 mg): 2.67
mean increase in Cmax ratio relative to drug co-ingested with 0% alcohol ([1]; 250 mg): 1.28

Tapentadol dihydrogenphosphate
dissolution rate compared with Tapentadol hydrochloride ([2]; at all tested pH values): significantly slower dissolution rate
intrinsic dissolution (dissolution rate) ([2]; pH 1.0, 0 min): 0%
intrinsic dissolution (dissolution rate) ([2]; pH 1.0, 1 min): 14%
intrinsic dissolution (dissolution rate) ([2]; pH 1.0, 3 min): 35%
intrinsic dissolution (dissolution rate) ([2]; pH 1.0, 5 min): 56%
intrinsic dissolution (dissolution rate) ([2]; pH 1.0, 7 min): 78%
intrinsic dissolution (dissolution rate) ([2]; pH 1.0, 9 min): 84%
intrinsic dissolution (dissolution rate) ([2]; pH 4.5, 0 min): 0%
intrinsic dissolution (dissolution rate) ([2]; pH 4.5, 1 min): 12%
intrinsic dissolution (dissolution rate) ([2]; pH 4.5, 3 min): 30%
intrinsic dissolution (dissolution rate) ([2]; pH 4.5, 5 min): 49%
intrinsic dissolution (dissolution rate) ([2]; pH 4.5, 7 min): 73%
intrinsic dissolution (dissolution rate) ([2]; pH 4.5, 9 min): 86%
intrinsic dissolution (dissolution rate) ([2]; pH 6.8, 0 min): 0%
intrinsic dissolution (dissolution rate) ([2]; pH 6.8, 1 min): 11%
intrinsic dissolution (dissolution rate) ([2]; pH 6.8, 3 min): 29%
intrinsic dissolution (dissolution rate) ([2]; pH 6.8, 5 min): 48%
intrinsic dissolution (dissolution rate) ([2]; pH 6.8, 7 min): 66%
intrinsic dissolution (dissolution rate) ([2]; pH 6.8, 9 min): 77%
intrinsic dissolution (dissolution rate) ([2]; pH 7.4, 0 min): 0%
intrinsic dissolution (dissolution rate) ([2]; pH 7.4, 1 min): 12%
intrinsic dissolution (dissolution rate) ([2]; pH 7.4, 3 min): 30%
intrinsic dissolution (dissolution rate) ([2]; pH 7.4, 5 min): 46%
intrinsic dissolution (dissolution rate) ([2]; pH 7.4, 7 min): 63%
intrinsic dissolution (dissolution rate) ([2]; pH 7.4, 9 min): 78%
ethanol induced dose dumping [3]: no ethanol induced dose dumping
additional retardant effect in aqueous ethanol compared to Tapentadol hydrochloride ([3]; 0.1 N HCl (pH 1.0) containing 40 vol.-% ethanol, same excipients in same amounts): significantly stronger
time difference to a release of 70% compared to Tapentadol hydrochloride ([3]; pH 4.5, aqueous buffer without ethanol): more than one
pH end ([4]; 0.1 M HCl, pH start 1.11): 2.55
thermodynamic solubility, assay expressed as base ([4]; 0.1 M HCl, pH start 1.11, 24 hours at 25 °C): 24.3 g/100 mL
pH end ([4]; 0.15N NaOH, pH start 13.08): 8.09
thermodynamic solubility, assay expressed as base ([4]; 0.15N NaOH, pH start 13.08, 24 hours at 25 °C): 6.5 g/100 mL
pH end ([4]; SIF sp pH 6.8, pH start 6.82): 2.81
thermodynamic solubility, assay expressed as base ([4]; SIF sp pH 6.8, pH start 6.82, 24 hours at 25 °C): 20.2 g/100 mL
pH end ([4]; acetate pH 4.5, pH start 4.54): 2.81
thermodynamic solubility, assay expressed as base ([4]; acetate pH 4.5, pH start 4.54, 24 hours at 25 °C): 21.2 g/100 mL
pH end ([4]; citrate pH 6.8, pH start 6.83): 3.15
thermodynamic solubility, assay expressed as base ([4]; citrate pH 6.8, pH start 6.83, 24 hours at 25 °C): 19.3 g/100 mL
pH end ([4]; citrate pH 7.4, pH start 7.39): 3.16
thermodynamic solubility, assay expressed as base ([4]; citrate pH 7.4, pH start 7.39, 24 hours at 25 °C): 19.0 g/100 mL
thermodynamic solubility compared with Tapentadol hydrochloride ([4]; under all tested conditions): below that of Tapentadol hydrochloride
pH end ([4]; water): 2.75
thermodynamic solubility, assay expressed as base ([4]; water, 24 hours at 25 °C): 21.4 g/100 mL
